Consider one compound from article PMC6407917, “Identification of GSK3186899/DDD853651 as a Preclinical Development Candidate for the Treatment of Visceral Leishmaniasis” (Journal of Medicinal Chemistry, 2018).

What is called IC50 is the concentration needed to halve the response being measured.

Among the targets are DDR1 (Homo sapiens, UniProt Q08345); DSTYK (Homo sapiens, UniProt Q6XUX3); EGFR (Homo sapiens, UniProt P00533); EPHA3 (Homo sapiens, UniProt P29320); EPHB6 (Homo sapiens, UniProt O15197); ITK (Homo sapiens, UniProt Q08881); LYN (Homo sapiens, UniProt P07948); MAPK14 (Homo sapiens, UniProt Q16539); MAPKAPK3 (Homo sapiens, UniProt Q16644); MAPKAPK5 (Homo sapiens, UniProt Q8IW41); PIK3C3 (Homo sapiens, UniProt Q8NEB9); PIK3R4 (Homo sapiens, UniProt Q99570); PKMYT1 (Homo sapiens, UniProt Q99640); PLK1 (Homo sapiens, UniProt P53350); PRKCB (Homo sapiens, UniProt P05771); RIOK2 (Homo sapiens, UniProt Q9BVS4); RIPK2 (Homo sapiens, UniProt O43353); RPS6KA4 (Homo sapiens, UniProt O75676); STK16 (Homo sapiens, UniProt O75716); TAOK1 (Homo sapiens, UniProt Q7L7X3); TNK2 (Homo sapiens, UniProt Q07912).

What all share (assay): biochemical
Common to all, as to design: species or system HEK293/K-562/placenta mixed human extract; Kinobeads chemoproteomic competition binding, quantified by TMT LC-MS/MS, dose response up to 20 uM

Chain of ITK (Q08881 whole entry): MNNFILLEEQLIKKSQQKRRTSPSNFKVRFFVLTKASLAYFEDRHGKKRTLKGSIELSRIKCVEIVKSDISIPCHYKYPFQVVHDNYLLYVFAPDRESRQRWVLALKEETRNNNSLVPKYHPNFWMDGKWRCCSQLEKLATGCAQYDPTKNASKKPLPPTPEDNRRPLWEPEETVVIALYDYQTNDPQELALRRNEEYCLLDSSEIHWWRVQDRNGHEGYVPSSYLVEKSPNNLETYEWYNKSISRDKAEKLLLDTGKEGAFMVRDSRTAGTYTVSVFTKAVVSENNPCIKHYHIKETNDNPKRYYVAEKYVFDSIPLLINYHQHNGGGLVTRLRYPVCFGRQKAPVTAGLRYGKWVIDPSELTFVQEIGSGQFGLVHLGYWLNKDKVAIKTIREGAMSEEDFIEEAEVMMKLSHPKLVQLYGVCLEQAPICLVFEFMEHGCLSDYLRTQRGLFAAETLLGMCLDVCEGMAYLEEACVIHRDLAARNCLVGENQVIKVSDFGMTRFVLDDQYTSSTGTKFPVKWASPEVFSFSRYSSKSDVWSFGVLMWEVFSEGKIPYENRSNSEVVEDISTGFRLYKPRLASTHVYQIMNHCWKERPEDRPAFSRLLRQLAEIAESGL
Chain of PLK1 (P53350 whole entry): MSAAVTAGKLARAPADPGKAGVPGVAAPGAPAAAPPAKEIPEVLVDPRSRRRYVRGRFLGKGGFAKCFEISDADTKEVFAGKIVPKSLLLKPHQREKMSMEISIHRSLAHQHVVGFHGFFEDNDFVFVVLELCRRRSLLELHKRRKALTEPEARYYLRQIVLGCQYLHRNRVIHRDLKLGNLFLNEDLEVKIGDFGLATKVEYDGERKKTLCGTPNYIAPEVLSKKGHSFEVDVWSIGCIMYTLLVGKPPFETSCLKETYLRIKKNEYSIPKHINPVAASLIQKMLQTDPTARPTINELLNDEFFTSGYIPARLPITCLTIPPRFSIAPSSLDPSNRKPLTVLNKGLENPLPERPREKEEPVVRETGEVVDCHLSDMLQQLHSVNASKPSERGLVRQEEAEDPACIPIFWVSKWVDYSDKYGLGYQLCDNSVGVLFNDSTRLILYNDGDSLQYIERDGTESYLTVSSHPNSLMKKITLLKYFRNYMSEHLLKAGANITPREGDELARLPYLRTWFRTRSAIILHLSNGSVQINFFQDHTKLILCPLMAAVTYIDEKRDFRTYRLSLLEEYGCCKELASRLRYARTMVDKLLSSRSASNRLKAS
Chain of LYN (P07948 whole entry): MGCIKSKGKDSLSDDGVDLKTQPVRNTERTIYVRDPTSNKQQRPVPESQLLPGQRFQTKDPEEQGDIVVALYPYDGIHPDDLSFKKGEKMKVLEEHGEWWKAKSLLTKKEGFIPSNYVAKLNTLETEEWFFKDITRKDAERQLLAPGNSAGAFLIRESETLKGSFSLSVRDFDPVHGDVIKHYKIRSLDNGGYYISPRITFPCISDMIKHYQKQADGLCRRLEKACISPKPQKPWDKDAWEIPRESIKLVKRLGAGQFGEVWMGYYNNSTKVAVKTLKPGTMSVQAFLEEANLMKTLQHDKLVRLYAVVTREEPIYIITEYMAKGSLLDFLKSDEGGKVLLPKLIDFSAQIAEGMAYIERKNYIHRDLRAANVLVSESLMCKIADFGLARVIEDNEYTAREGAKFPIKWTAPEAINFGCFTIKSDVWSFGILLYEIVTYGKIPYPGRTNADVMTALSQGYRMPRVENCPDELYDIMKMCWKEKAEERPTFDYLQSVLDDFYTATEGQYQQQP
Chain of STK16 (O75716 whole entry): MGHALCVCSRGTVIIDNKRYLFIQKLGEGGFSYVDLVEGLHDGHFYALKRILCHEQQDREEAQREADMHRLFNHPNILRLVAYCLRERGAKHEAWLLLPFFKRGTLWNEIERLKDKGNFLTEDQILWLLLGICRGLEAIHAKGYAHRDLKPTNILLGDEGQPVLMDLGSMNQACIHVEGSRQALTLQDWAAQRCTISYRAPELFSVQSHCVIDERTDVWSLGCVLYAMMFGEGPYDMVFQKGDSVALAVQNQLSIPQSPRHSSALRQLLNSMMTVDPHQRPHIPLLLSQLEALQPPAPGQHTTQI
Chain of PIK3R4 (Q99570 whole entry): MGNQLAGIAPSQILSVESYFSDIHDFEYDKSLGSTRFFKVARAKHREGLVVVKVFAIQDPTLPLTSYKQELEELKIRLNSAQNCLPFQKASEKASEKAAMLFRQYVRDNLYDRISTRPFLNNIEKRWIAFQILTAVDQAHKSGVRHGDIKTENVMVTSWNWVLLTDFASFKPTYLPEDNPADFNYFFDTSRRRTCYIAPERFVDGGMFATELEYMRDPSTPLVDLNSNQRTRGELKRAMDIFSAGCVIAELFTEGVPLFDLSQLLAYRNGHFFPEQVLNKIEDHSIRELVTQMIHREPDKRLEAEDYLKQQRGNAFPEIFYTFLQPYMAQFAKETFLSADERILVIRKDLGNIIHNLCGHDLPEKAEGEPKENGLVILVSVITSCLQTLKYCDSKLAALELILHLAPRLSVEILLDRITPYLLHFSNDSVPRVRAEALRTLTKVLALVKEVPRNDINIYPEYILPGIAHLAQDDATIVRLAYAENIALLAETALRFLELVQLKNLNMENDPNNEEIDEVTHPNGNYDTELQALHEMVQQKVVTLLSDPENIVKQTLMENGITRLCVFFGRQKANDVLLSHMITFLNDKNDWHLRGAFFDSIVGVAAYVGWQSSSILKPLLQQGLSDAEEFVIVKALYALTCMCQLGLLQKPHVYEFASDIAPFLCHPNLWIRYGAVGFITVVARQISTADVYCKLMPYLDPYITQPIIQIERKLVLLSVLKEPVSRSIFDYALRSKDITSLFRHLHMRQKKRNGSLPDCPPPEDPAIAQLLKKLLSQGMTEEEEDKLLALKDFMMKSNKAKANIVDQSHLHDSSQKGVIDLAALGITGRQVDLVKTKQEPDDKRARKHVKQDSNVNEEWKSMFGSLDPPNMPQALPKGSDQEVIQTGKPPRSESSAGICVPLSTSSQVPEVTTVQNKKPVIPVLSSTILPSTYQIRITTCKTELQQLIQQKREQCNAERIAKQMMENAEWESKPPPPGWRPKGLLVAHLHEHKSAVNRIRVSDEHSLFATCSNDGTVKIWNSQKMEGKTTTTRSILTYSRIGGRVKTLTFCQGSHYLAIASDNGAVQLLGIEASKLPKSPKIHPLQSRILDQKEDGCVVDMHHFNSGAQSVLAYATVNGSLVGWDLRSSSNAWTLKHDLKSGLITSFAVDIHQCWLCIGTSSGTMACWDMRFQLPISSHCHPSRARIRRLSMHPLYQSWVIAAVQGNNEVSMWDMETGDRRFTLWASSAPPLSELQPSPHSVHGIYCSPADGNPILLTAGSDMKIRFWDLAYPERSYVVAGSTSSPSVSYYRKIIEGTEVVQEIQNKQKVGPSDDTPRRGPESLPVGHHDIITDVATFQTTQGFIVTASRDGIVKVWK
Chain of PIK3C3 (Q8NEB9 whole entry): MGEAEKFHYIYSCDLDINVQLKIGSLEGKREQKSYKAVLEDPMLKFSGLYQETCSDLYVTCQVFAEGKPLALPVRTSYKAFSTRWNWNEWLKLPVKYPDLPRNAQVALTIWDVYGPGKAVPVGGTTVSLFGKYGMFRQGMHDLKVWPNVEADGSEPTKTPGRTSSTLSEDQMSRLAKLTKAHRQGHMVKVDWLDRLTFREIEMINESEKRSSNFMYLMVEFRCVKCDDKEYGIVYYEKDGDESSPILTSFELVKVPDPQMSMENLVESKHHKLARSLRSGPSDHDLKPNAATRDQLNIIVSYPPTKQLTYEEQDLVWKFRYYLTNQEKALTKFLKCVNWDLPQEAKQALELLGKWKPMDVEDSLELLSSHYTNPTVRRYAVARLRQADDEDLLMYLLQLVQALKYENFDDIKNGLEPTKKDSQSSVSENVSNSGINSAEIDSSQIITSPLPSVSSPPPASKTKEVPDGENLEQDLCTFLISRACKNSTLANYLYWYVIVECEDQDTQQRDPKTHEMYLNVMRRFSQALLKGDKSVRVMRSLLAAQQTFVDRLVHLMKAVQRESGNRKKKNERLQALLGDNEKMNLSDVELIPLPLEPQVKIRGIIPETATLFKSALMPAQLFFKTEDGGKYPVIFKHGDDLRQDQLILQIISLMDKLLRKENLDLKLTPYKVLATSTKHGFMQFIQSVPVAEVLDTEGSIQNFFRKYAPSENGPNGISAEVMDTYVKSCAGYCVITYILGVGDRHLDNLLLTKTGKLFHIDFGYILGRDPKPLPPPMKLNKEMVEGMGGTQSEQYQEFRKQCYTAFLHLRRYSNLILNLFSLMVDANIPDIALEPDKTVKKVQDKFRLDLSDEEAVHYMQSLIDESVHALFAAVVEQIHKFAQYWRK
Chain of MAPK14 (Q16539 whole entry): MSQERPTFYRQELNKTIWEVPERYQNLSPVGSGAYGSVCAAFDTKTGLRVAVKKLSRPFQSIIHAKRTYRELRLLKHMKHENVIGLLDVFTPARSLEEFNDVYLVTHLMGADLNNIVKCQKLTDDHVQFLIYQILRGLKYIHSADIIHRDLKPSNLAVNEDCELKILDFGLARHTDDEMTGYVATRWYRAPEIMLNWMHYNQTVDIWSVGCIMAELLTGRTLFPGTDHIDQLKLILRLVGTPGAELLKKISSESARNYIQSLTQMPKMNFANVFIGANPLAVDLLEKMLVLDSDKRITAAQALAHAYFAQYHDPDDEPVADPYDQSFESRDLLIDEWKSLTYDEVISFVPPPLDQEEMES
Chain of MAPKAPK3 (Q16644 whole entry): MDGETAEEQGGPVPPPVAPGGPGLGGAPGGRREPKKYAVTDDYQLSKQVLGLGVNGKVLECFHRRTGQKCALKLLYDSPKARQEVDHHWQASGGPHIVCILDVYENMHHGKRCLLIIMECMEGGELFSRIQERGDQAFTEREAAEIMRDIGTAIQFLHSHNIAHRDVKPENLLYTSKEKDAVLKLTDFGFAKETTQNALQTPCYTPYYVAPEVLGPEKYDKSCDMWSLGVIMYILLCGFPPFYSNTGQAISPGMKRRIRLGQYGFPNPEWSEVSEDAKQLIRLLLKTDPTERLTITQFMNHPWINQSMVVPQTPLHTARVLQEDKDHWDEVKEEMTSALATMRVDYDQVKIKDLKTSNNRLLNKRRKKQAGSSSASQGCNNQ

As for `COc1nc(N[C@H]2CC[C@H](NS(=O)(=O)CC(C)C)CC2)nc2[nH]nc(N3CCOC[C@H]3C)c12` [compound 39, N-(trans-4-((4-Methoxy-3-((R)-3-methylmorpholino)-1H-pyrazolo[3,4-d]pyrimidin-6-yl)amino)cyclohexyl)-2-methylpropane-1-sulfonamide], the 50% inhibitory concentration (IC50) is at least 20 µM at DDR1; at least 20 µM on DSTYK; at least 20 µM at EGFR; at least 20 µM at EPHA3; 3.3 µM at EPHB6; at least 20 µM on ITK. Moreover, the half-maximal inhibitory concentration (IC50) was at least 20 µM on LYN; at least 20 µM at MAPK14; at least 20 µM at MAPKAPK3; 6.2 µM at MAPKAPK5; at least 20 µM on PIK3C3; at least 20 µM at PIK3R4. Besides, the half-maximal inhibitory concentration (IC50) at PKMYT1, at PLK1, at PRKCB, on RIOK2, on RIPK2 and on RPS6KA4 was at least 20 µM each time. In addition, the 50% inhibitory concentration (IC50) at STK16, on TAOK1 and on TNK2 was at least 20 µM each time.
